According to ChEMBL document CHEMBL6092156, “Design and development of a series of 4-(piperazin-1-yl)pyrimidines as irreversible menin inhibitors” (Eur J Med Chem, 2024):

Tests used:
[1] = biological target: Menin/Histone-lysine N-methyltransferase MLL (Homo sapiens, UniProt O00255); assay: Inhibition of menin (unknown origin)/N-terminal FITC-labeled MLL1 peptide (unknown origin) interaction incubated for 30 min by fluorescence polarization assay; type: protein assay
[2] = Suppression of MEN1 gene transcription in human MV4-11 cells assessed as protein synthesis by measuring fold change at 20 nM incubated for 16 hrs relative to control; type: functional
[3] = Suppression of MEN1 gene transcription in human MV4-11 cells assessed as protein synthesis by measuring fold change at 50 ug/ml incubated for 12 hrs relative to control; type: functional; conditions: dose 50 µg/ml
[4] = Suppression of MEN1 gene transcription in human MV4-11 cells assessed as protein synthesis by measuring fold change at 50 ug/ml incubated for 36 hrs relative to control; type: functional; conditions: dose 50 µg/ml
[5] = Suppression of MEN1 gene transcription in human MV4-11 cells assessed as protein synthesis by measuring fold change at 50 ug/ml incubated for 24 hrs relative to control; type: functional; conditions: dose 50 µg/ml
[6] = Suppression of MEN1 gene transcription in human MV4-11 cells assessed as protein synthesis by measuring fold change at 50 ug/ml incubated for 48 hrs relative to control; type: functional; conditions: dose 50 µg/ml
MV4-11 [7] = assay: Antiproliferative activity against human menin-sensitive MV4-11 cells assessed as inhibition of cell growth incubated for 7 days by MTS assay; type: functional, cell-based; conditions: MV4-11, 168 h
REH = assay: Antiproliferative activity against human menin-insensitive REH cells assessed as inhibition of cell growth incubated for 7 days by MTS assay; type: functional, cell-based; conditions: 168 h
MV4-11 [8] = assay: Antiproliferative activity against human MV4-11 cells assessed as cell growth inhibition after 4 days; type: functional, cell-based; conditions: MV4-11, 96 h
[9] = Cytotoxicity against human PBMC cells assessed as cell viability incubated for 7 days by MTS assay; type: toxicity, cell-based

Menin/Histone-lysine N-methyltransferase MLL, sequence (O00255 whole entry): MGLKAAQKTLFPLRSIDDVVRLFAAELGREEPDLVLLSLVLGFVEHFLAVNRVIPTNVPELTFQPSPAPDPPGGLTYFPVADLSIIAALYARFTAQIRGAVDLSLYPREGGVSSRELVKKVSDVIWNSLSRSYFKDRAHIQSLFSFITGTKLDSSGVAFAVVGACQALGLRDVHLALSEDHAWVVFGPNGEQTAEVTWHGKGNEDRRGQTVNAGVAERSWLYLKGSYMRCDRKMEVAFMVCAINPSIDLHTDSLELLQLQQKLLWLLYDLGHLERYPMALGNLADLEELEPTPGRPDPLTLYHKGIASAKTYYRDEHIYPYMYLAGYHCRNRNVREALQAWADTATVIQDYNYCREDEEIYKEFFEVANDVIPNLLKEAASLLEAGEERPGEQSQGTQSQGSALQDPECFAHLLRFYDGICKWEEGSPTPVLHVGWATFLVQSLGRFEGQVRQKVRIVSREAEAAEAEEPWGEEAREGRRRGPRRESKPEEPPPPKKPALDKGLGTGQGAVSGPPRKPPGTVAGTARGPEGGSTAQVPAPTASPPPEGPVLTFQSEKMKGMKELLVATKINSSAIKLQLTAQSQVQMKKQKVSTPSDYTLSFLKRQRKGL
Menin/Histone-lysine N-methyltransferase MLL, sequence (Q03164 1-2718 partner limits assumed): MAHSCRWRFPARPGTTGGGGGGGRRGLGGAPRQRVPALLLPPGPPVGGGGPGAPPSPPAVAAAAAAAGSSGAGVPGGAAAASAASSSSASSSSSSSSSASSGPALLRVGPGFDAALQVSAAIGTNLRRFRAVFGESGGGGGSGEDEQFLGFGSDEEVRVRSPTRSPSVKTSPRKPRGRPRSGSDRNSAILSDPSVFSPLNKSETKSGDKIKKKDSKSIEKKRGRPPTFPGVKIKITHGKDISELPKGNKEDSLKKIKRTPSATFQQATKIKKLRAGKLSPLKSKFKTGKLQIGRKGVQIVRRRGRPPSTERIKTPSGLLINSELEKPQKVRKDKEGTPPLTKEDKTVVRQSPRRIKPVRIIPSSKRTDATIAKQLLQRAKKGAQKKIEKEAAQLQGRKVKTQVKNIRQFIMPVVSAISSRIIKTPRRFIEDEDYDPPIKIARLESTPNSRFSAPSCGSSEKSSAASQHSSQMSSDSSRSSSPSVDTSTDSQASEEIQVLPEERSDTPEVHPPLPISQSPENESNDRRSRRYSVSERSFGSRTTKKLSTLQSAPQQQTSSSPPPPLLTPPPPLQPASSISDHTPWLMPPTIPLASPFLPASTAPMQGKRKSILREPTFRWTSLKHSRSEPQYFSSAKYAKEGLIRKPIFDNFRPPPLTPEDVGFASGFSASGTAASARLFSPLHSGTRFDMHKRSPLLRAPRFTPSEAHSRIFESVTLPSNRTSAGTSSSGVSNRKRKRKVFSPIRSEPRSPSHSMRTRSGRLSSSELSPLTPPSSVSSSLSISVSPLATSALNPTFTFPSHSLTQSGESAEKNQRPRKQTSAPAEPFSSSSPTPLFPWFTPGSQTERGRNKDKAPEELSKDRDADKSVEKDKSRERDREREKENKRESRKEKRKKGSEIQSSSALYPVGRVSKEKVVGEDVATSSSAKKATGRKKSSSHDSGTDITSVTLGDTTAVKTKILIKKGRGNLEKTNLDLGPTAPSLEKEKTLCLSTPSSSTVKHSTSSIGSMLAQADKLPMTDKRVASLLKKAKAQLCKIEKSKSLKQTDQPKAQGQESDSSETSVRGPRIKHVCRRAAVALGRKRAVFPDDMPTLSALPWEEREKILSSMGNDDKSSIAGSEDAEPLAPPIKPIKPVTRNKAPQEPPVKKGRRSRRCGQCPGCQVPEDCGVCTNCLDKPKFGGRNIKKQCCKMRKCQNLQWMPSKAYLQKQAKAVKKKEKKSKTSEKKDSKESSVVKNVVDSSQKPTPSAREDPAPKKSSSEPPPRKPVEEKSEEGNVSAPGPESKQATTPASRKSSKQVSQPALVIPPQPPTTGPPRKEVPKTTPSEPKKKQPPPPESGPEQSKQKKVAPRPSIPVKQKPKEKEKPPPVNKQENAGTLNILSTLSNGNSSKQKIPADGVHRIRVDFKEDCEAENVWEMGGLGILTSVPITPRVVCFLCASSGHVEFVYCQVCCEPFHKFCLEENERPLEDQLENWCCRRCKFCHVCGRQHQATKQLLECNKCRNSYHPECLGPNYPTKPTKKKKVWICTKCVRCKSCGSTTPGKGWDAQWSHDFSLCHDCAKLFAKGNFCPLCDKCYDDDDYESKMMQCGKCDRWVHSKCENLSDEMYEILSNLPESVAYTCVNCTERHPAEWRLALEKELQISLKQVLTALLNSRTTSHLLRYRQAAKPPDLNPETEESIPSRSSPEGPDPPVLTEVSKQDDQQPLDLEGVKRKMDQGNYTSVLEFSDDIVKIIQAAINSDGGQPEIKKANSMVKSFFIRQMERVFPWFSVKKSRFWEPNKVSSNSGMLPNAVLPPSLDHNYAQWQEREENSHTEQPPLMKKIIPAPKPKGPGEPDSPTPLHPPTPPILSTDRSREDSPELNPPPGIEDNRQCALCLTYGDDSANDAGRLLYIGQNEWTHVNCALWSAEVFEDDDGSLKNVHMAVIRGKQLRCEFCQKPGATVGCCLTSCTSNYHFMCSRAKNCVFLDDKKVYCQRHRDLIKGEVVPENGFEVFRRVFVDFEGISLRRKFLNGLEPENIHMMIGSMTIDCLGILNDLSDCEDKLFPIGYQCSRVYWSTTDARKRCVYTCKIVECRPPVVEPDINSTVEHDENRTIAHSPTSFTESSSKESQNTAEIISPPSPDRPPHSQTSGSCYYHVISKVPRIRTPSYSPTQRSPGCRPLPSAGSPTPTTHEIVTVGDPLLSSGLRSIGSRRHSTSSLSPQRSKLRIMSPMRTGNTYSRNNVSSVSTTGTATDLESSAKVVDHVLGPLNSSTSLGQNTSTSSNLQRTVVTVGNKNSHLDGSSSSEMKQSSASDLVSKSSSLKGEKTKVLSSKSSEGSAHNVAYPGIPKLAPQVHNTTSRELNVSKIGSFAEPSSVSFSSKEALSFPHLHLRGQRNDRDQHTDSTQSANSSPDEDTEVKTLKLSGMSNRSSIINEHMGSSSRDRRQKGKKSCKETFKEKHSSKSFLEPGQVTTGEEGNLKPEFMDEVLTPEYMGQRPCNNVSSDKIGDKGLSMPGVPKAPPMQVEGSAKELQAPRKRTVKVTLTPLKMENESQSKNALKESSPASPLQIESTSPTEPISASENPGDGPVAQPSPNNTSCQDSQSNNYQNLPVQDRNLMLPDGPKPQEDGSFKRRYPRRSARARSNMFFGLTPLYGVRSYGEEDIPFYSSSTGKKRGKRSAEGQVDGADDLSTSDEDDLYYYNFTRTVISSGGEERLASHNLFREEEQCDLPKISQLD
Menin/Histone-lysine N-methyltransferase MLL, sequence (Q03164 2719-3969 partner limits assumed): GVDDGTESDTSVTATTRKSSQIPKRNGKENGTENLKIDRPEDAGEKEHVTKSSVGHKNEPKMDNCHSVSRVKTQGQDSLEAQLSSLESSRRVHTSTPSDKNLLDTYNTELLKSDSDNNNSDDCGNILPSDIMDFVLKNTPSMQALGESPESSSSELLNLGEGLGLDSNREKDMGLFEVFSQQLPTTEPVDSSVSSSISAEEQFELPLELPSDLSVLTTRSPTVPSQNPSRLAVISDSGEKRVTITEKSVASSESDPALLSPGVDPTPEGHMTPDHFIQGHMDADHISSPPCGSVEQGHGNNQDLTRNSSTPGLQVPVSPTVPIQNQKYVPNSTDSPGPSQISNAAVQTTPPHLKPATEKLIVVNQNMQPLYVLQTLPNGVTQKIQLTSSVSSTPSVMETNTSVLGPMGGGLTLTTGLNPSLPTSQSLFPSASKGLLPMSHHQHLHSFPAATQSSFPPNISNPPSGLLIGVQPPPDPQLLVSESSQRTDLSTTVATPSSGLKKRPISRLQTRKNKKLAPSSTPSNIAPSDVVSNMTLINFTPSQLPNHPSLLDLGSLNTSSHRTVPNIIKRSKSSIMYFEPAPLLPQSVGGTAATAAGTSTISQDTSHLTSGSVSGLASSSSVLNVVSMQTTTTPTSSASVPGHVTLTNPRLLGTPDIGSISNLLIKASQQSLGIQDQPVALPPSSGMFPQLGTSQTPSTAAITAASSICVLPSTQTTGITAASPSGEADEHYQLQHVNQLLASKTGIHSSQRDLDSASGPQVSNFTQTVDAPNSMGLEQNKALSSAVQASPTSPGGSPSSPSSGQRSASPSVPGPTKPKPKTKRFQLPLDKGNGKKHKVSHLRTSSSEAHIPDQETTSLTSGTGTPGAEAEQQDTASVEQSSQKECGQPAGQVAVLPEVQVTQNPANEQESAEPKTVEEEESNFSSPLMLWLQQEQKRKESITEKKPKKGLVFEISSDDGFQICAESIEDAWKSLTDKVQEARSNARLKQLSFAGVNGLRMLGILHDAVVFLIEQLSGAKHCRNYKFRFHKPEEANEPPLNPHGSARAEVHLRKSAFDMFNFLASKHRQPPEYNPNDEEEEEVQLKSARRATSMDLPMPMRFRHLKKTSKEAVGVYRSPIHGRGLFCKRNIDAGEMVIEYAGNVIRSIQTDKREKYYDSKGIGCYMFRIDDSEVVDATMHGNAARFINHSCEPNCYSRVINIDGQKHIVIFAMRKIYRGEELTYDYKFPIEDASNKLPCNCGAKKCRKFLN

| SMILES | IC50 [1] | IC50 (MV4-11 [7]) | IC50 (REH) | other results |
| --- | --- | --- | --- | --- |
| CCC(=O)c1ccc(N2CC(CN3CCN(c4ncncc4Nc4ccc(F)cc4C(=O)N(CC)C(C)C)CC3)C2)cc1 | 49.7 nM |  |  |  |
| CC(C)C[C@H](NC(=O)[C@H](CCc1ccccc1)NC(=O)CN1CCOCC1)C(=O)N[C@@H](Cc1ccccc1)C(=O)N[C@@H](CC(C)C)C(=O)[C@@]1(C)CO1 [CARFILZOMIB] |  |  |  | fold change (FC) [2]: 1.16 |
| C[C@@H]1C[C@@H]([C@H](O)CC2CC(=O)NC(=O)C2)C(=O)[C@@H](C)C1 [CYCLOHEXIMIDE] |  |  |  | fold change (FC) [3]: 0.55; fold change (FC) [4]: 0.007; fold change (FC) [5]: 0.41; fold change (FC) [6]: 0.007 |
| C=CC(=O)N1CC(S(=O)(=O)c2ccc(N3CC(CN4CCN(c5ncncc5Nc5ccc(F)cc5C(=O)N(C(C)C)C(C)C)CC4)C3)cc2)C1 | 33.9 nM | 220 nM | 4.81 µM |  |
| CCN(C(=O)c1cc(F)ccc1Nc1cncnc1N1CCN(CC2CN(c3ccc(F)cc3)C2)CC1)C(C)C | 276 nM |  |  |  |
| CCN(C(=O)c1cc(F)ccc1Oc1cncnc1N1CCN(CC2CN(c3ccc(S(=O)(=O)C4CN(C(=O)/C=C/CN(C)C)C4)cc3)C2)CC1)C(C)C | 14.5 nM | 40 nM | 11.4 µM |  |
| CCC(=O)N[C@H]1CCN(S(=O)(=O)c2ccc(N3CC(CN4CCN(c5ncncc5Nc5ccc(F)cc5C(=O)N(CC)C(C)C)CC4)C3)cc2)C1 | 61.3 nM | 2240 nM | > 20 µM |  |
| CCN(C(=O)c1cc(F)ccc1Nc1cncnc1N1CCN(C(C)C2CN(c3ccc(S(=O)(=O)C4CN(C(=O)/C=C/CN(C)C)C4)cc3)C2)CC1)C(C)C (stereo not given) | 18.4 nM | 140 nM | 7.9 µM |  |
| COC(=O)N[C@H]1CCC[C@@H]1[C@](C#N)(c1cccc(F)c1)C1CCN(CC2CN(c3ccc(S(=O)(=O)C4CN(C(=O)/C=C/CN(C)C)C4)cc3)C2)CC1 |  |  |  | IC50 (MV4-11 [8]): 2.7 nM |
| CCN(C(=O)c1cc(F)ccc1Nc1cncnc1N1CCN(CC2CN(c3ccc(NS(C)(=O)=O)cc3)C2)CC1)C(C)C | 27.3 nM |  |  |  |
| CCC(=O)Nc1cccc(N2CC(CN3CCN(c4ncncc4Nc4ccc(F)cc4C(=O)N(C(C)C)C(C)C)CC3)C2)c1 | 95.6 nM | 1510 nM | > 20 µM |  |
| CCN(C(=O)c1cc(F)ccc1Nc1cncnc1N1CCN(CC2CN(c3ccc(C(F)(F)F)cc3)C2)CC1)C(C)C | 186 nM |  |  |  |
| CCN(C(=O)c1cc(F)ccc1Oc1cncnc1N1CC2(CCN(C[C@H]3CC[C@H](NS(=O)(=O)CC)CC3)CC2)C1)C(C)C [REVUMENIB] | 15.5 nM |  |  | IC50 at 7 days [9]: > 3000 nM |
| CCN(C(=O)c1cc(F)ccc1Nc1cncnc1N1CCN(CC2CN(c3ccc(S(=O)(=O)C4CN(C(=O)/C=C/CN(C)C)C4)cc3)C2)CC1)C(C)C | 14.2 nM | 30 nM | 1.93 µM |  |
| CCC(=O)Nc1ccc(N2CC(CN3CCN(c4ncncc4Nc4ccc(F)cc4C(=O)N(C(C)C)C(C)C)CC3)C2)cc1 | 48.3 nM | 770 nM | 8.26 µM |  |
| CCN(C(=O)c1cc(F)ccc1Nc1cncnc1N1CCN(CC2CN(c3ccc(S(=O)(=O)C4CN(C(=O)/C=C/CN5CCCCC5)C4)cc3)C2)CC1)C(C)C | 16.6 nM | 30 nM | 7.88 µM |  |
| C=CC(=O)N[C@@H]1CCN(S(=O)(=O)c2ccc(N3CC(CN4CCN(c5ncncc5Nc5ccc(F)cc5C(=O)N(CC)C(C)C)CC4)C3)cc2)C1 | 31.8 nM | 1260 nM | > 20 µM |  |
| CCN(C(=O)c1cc(F)ccc1Nc1cncnc1N1C[C@@H](C)N(CC2CN(c3ccc(S(=O)(=O)C4CN(C(=O)/C=C/CN(C)C)C4)cc3)C2)C[C@@H]1C)C(C)C | 22.3 nM | 120 nM | 18 µM |  |

| SMILES | IC50 [1] | IC50 (MV4-11 [7]) | IC50 (REH) | other results |
| --- | --- | --- | --- | --- |
| CCN(C(=O)c1cc(F)ccc1Nc1cncnc1N1CCN(CC2CN(c3ccc(S(=O)(=O)N4CC[C@@H](NC(=O)/C=C/CN(C)C)C4)cc3)C2)CC1)C(C)C | 11.3 nM | 614 nM | > 20 µM |  |
| CCN(C(=O)c1cc(F)ccc1Nc1cncnc1N1CCN(CC2CN(c3ccc(S(=O)(=O)N4CC[C@H](NC(=O)/C=C/CN(C)C)C4)cc3)C2)CC1)C(C)C | 16.7 nM | 644 nM | > 20 µM |  |
| CCN(C(=O)c1cc(F)ccc1Nc1cncnc1N1CCN(CC2CN(c3ccc(C#N)cc3)C2)CC1)C(C)C | 38.8 nM |  |  |  |
| CCN(C(=O)c1cc(F)ccc1Nc1cncnc1N1CCN(CC2CN(c3ccc(NC(=O)/C=C/CN(C)C)cc3)C2)CC1)C(C)C | 61.9 nM | 1100 nM | > 20 µM |  |
| CCN(C(=O)c1cc(F)ccc1Nc1cncnc1N1CCN(CC2CN(c3ccc(S(=O)(=O)N4CC(NC(=O)/C=C/CN(C)C)C4)cc3)C2)CC1)C(C)C | 12.3 nM | 281 nM | > 20 µM |  |
| CCN(C(=O)c1cc(F)ccc1Nc1cncnc1N1CCN(C(=O)C2CN(c3ccc(S(=O)(=O)C4CN(C(=O)/C=C/CN(C)C)C4)cc3)C2)CC1)C(C)C | 12.9 nM | 50 nM | > 20 µM |  |
| CCC(=O)NC1CN(S(=O)(=O)c2ccc(N3CC(CN4CCN(c5ncncc5Nc5ccc(F)cc5C(=O)N(CC)C(C)C)CC4)C3)cc2)C1 | 34.2 nM | 875 nM | > 20 µM |  |
| C=CC(=O)Nc1ccc(N2CC(CN3CCN(c4ncncc4Nc4ccc(F)cc4C(=O)N(C(C)C)C(C)C)CC3)C2)cc1 | 34 nM | 530 nM | 4.28 µM |  |
| CCN(C(=O)c1cc(F)ccc1Nc1cncnc1N1CCN(CC2CN(c3ccc(S(=O)(=O)C4CN(C(=O)/C=C/CN5CCCC5)C4)cc3)C2)CC1)C(C)C | 16.3 nM | 32 nM | 6.98 µM |  |
| CCC(=O)N[C@@H]1CCN(S(=O)(=O)c2ccc(N3CC(CN4CCN(c5ncncc5Nc5ccc(F)cc5C(=O)N(CC)C(C)C)CC4)C3)cc2)C1 | 52.2 nM | 1470 nM | > 20 µM |  |
| CCC(=O)N1CC(S(=O)(=O)c2ccc(N3CC(CN4CCN(c5ncncc5Nc5ccc(F)cc5C(=O)N(C(C)C)C(C)C)CC4)C3)cc2)C1 | 32.8 nM | 210 nM | > 20 µM |  |
| CCN(C(=O)c1cc(F)ccc1Nc1cncnc1N1CCN(CC2CN(c3ccc(S(C)(=O)=O)cc3)C2)CC1)C(C)C | 66.5 nM |  |  |  |
| C=CC(=O)NC1CN(S(=O)(=O)c2ccc(N3CC(CN4CCN(c5ncncc5Nc5ccc(F)cc5C(=O)N(CC)C(C)C)CC4)C3)cc2)C1 | 22.9 nM | 283 nM | > 20 µM |  |
| CCN(C(=O)c1cc(F)ccc1Nc1cncnc1N1CCN(CC2CN(c3ccc(S(N)(=O)=O)cc3)C2)CC1)C(C)C | 21.6 nM |  |  |  |
| CCN(C(=O)c1cc(F)ccc1Nc1cncnc1N1CCN(CC2CN(c3ccc([N+](=O)[O-])cc3)C2)CC1)C(C)C | 50.2 nM |  |  |  |
| C=CC(=O)N[C@H]1CCN(S(=O)(=O)c2ccc(N3CC(CN4CCN(c5ncncc5Nc5ccc(F)cc5C(=O)N(CC)C(C)C)CC4)C3)cc2)C1 | 51.4 nM | 607 nM | > 20 µM |  |
| C=CC(=O)Nc1cccc(N2CC(CN3CCN(c4ncncc4Nc4ccc(F)cc4C(=O)N(C(C)C)C(C)C)CC3)C2)c1 | 97.3 nM | 1330 nM | 4.42 µM |  |
